# Assay results as given in US9682994B2, “Inhibitors of retroviral replication” (The Scripps Research Institute, priority 2011, dated 2017).
# What was measured:
# HIV-1 pNL4-3 [1] = experiment: Chronically HIV-1 infected HeLa-CD4 cells, viral RNA by qRT-PCR / p24; assay type: cell-based; conditions: Human immunodeficiency virus 1; read-out: EC50 for abrogating chronic HIV infection
# Experimental: FIG. 1G: p24 antigen quantification. Viral supernatants recovered from cells described in FIG. 1B, grown for 60 days, were assayed for their p24 antigen content using a sandwich ELISA kit. Error bars represent standard deviations.
# First-strand cDNA from RNA for qPCR was prepared using […]™ first-strand cDNA kit (Invitrogen), following the manufacturer's instructions, using approximately 5 μg of RNA as starting material and random hexamers as first-strand primers. Quantitative PCR was performed with an aliquot of cDNA as template, using […]® 480 SYBR Green I Master (Roche) in a 20 μL reaction according to the manufacturer's instructions. […] The primers used were as follows: […]
# Such an early time point rules out de novo infections. […] This conclusion was further supported by the fact that treatment of cells that were chronically infected, and therefore continuously shedding the virus (without incurring new infections, due to down-regulation of CD4 from the cell surface), reduced virus production to undetectable levels (FIG. 1F). […] Results were similar when viral release from cells treated for 60 days were measured by p24 enzyme-linked immunosorbent assay (ELISA) (FIG. 1G).
# HIV-1 pNL4-3 [2] = experiment: Acute HIV-1 infection, HeLa-CD4-LTR-LacZ reporter CPRG assay; assay type: cell-based
# Experimental: Forty-eight hours post infection a quantitative chlorophenol red-β-D-galactopyranoside (CPRG) assay was performed.
# Twenty-four hours later HIV-1 pNL4-3 was added to the cells of both experiment sets (MOI>>10) in the presence of testing compound or DMSO control. CPRG assay performed 48 h later.
# HeLa-CD4 cells were infected with HIV-1 pNL4-3 in the presence of the indicated compounds or DMSO. Forty hours post infection a CPRG assay was performed. […] Error bars represent standard deviation.
# P42 cells were plated at 1×10^4 cells per well of 96 well. Twenty-four hours later HIV-1 pNL4-3 was added to the wells in the presence of testing compound or DMSO control in a total volume of […] Forty hours post infection cells were disrupted in lysis buffer (60 mM Na2HPO4, 40 mM NaH2PO4, 10 mM KCl, 10 mM MgSO4, 2.5 mM EDTA, 50 mM β-mercaptoethanol, 0.125% Nonidet P-40) and a quantitative chlorophenol red-β-D-galactopyranoside (CPRG)-based (Boehringer Mannheim) assay was performed. The cell extracts were incubated in a reaction buffer (0.9 M phosphate buffer [pH 7.4], 9 mM MgCl2, 11 mM β-mercaptoethanol, 7 mM CPRG) until a red color developed (from approximately 10 min to 4 h) and measured with an LP400 (Becton Dickinson) plate reader at 572 nm. Experiments were performed in triplicate.
# Transcription of the HIV-1 provirus is regulated by both viral and cellular transcription factors. Before Tat is produced, low-level basal transcription from the viral promoter is initiated by cellular factors, such as the nuclear factor-kappa B (NF-kB), Sp1, TATA-binding protein and RNAPII. A desirable Tat inhibitor should block Tat-mediated activation of the viral promoter without affecting its basal transcription, which would result in cellular toxicity, given the shared transcription factors of the HIV promoter and cellular genes.
# HeLa-CD4 cells = experiment: MTT mitochondrial metabolic activity (cell viability); assay type: cell-based
# Tat = experiment: Biotinylated compound streptavidin-bead pull-down of Tat; assay type: binding, HIV-1; conditions: for competition for binding of recombinant Tat to Bio-dCA: excess competitor
# Experimental: (§1) HEK293T cells were transfected with flag-tagged Tat 101 a.a. (Tat-F-101-wt), a shorter Tat version with 86 a.a. (Tat-F-86-wt), Tat 86 a.a. mutated in the basic domain (Tat-F-BRM), flag-tagged CDK11 (CDK11-F), flag-tagged 9G8 (9G8-F) and empty vector control.
# Recombinant Tat protein was incubated with Bio-dCA streptavidin-coated beads in the presence or absence of an excess of non-biotinylated dCA (represented as molar equivalent [eq.] of Bio-dCA). Raltegravir and recombinant GST-9G8 were used as a negative control competitor or as negative protein-binding control, respectively.
# (§2) DYNABEADS® MYONE™ Streptavidin T1 (12.5 μl slurry) (Invitrogen) were pre-saturated with 1.88 μl of 1 mM in DMSO of Biotin alone or Bio-dCA and incubated for 1 h at room temperature with orbital rocking, plus an additional 30 min with Biotin (0.63 μl of 1 mM in DMSO). Protein extracts (250 μg per sample) were incubated with the pre-saturated beads in lysis buffer supplemented with 0.1% BSA for 1 h at 4° C. with orbital rocking. After incubation, the beads were washed three times with lysis buffer.
# For the pull-down of recombinant Tat (#2222 of NIH) and GST-9G8, streptavidin-agarose beads (40 μl slurry) were pre-saturated with 1.5 μl of 1 mM in DMSO, Biotin alone, or Bio-dCA and incubated for 1 h at room temperature. […] After incubation, the beads were washed three times with PBS and proteins were eluted as before.
# [3] = test system: basic region Tat mutant (Tat-1 BRM); experiment: Biotinylated compound pull-down of basic region Tat mutant; assay type: binding, HIV-1
# Experimental: as §1, §2
# [4] = target: T1, DNA-dependent protein kinase (DNA-PK) catalytic subunit (Homo sapiens, UniProt P78527); experiment: Bio-CA pull-down / mass spectrometry, DNA-PK; assay type: binding
# T1 construct: endogenous in cells; host or cells: P42 (HeLa-CD4-LTR-LacZ) cells; HEK293T cells
# Experimental: FIG. 14: Bio-CA associated proteins. […] After SDS-PAGE analysis and Coomassie staining, gel slices were trypsin-digested and sent to mass spectrometry analysis.
# To identify cellular proteins associated with CA, a biotinylated form of the compound (Bio-CA) was used. […] The Bio-CA was used to cover streptavidin-coated magnetic beads to pull down interacting proteins from either uninfected or chronically infected lysates of cells grown in the presence or absence of CA for 48 hours (FIG. 14D). The identity of the proteins pulled down under the different conditions was determined by HPLC MS/MS analysis. The proteins were identified with a greater than 95% confidence using a proprietary Scripps proteomics software package for protein identification, statistical analysis, and mass/peptide sequence correlation. The HIV proteome was added to the proteomics software search database before analysis. Many proteins were identified in uninfected untreated and in chronically untreated samples (approximately 300), however only 53 were displaced by more than 50% by the presence of CA. Of these 53 proteins, it appears that at least 2 may have a role in HIV-1 replication: DNA-dependent protein kinase catalytic subunit (DNA-PK) and helicase like transcription factor (HLTF).
# CMV and MLV promoters = experiment: Transcription from CMV and MLV promoters; assay type: cell-based
# Source text: DNA-PK was identified as a binding partner of CA by mass spectrometry and further confirmation of this interaction was provided by performing a pull down assay (FIG. 15). Without wishing to be bound by theory, it was hypothesized that part of the mechanism by which CA inhibits HIV replication is by blocking the accrued DNA-PK phosphorylation of Sp1 mediated by Tat with a consequent reduction in both basal and Tat-mediated transcriptional activation of the HIV LTR promoter. Sp1 is thought to be essential for basal transcription and Tat-mediated activation of HIV-1.
# [5] = test system: human umbilical vein endothelial cells (HUVECs); conditions: read-out: average half maximal inhibitory concentration (IC50), anti-proliferative; cited from earlier work
# CDK11 [6] = target: CDK11 (Homo sapiens, UniProt Q9BWU1); conditions: cited from earlier work
# CDK8 = CDK8 (Homo sapiens, UniProt P49336); conditions: cited from earlier work
# ROCK II = ROCK II (Homo sapiens, UniProt O75116); conditions: cited from earlier work
# Sp1 = Sp1 (Homo sapiens, UniProt P08047); experiment: Bio-CA pull-down, Sp1
# Experimental: HEK293T cells were transfected with wt-Tat101-flag, vvtTat86-flag, Tat86mutant-TAR domain, CDK11-flag or 9G8-flag as negative control. Forty hours later, protein extracts were incubated with DYNABEADS® MYONE™ Streptavidin T1 coated with either biotin or Biotinylated-CA. Pulled down proteins analyzed by Western blot with the indicated antibodies.
# RNA polymerase = experiment: Bio-CA pull-down, RNA polymerase
# CDK11 [7] = target: CDK11 (Homo sapiens, UniProt P21127); experiment: Biotinylated compound pull-down of CDK11; assay type: binding; design: expressed in transfected cells; host or cells: HEK293T
# Experimental: as §1, §2
# HIV-1 pNL43 = experiment: HIV-1 replication in PHA/IL-2 stimulated human PBMCs, p24 ELISA; assay type: cell-based; conditions: p24 ELISA, 5 days post infection
# Experimental: Freshly isolated uninfected human PBMCs were stimulated with PHA for two days, washed, and grown from then on in IL-2 alone. […] Antigen p24 was measured 5 days post infection using a sandwich ELISA kit.
# To isolate PBMCs, 24 ml of total blood diluted two fold in RPMI or PBS were carefully layered over 12 ml of Ficoll-paque and centrifuged at 2000 rpm for 20 min (brakes off). Resultant layers are approximately from top to bottom: plasma-platelets-PBMC-Ficoll-red blood cells (with granulocytes). Most of the plasma was pipetted off and discarded. The buffy coat with PBMC's was carefully removed from 3 large (50 ml) tubes and transferred to a new 50 ml tube. The remaining Ficoll and red blood cells were discarded in closed tubes. Enough PBS was added to the PBMCs to make up 50 ml and centrifuged at 1200 rpm for 10 min, brakes on. The supernatant was decanted and the pellet was loosened and washed twice with PBS. Washed pellet was recovered in 30 ml of RPMI 1640 supplemented with 10% serum, 1% Penicillin-streptomycin and mixed well. PBMCs were counted and plated at 1×10^6 cells/ml. To activate the PBMCs, PHA (phytohaemagglutinin) was added at 3 μg/ml. Two to three days later add Interleukin 2 (IL2) at 3×10^−3 μg/ml.
# PHA activated PBMCs were centrifuged and recovered at 6×10^6 cells in 3 ml complete RPMI. Then 3 ml of viral supernatant was added and incubated for 4 h at 37° C. After this period, cells were centrifuged, washed 3 times with PBS and recovered in 3 ml complete RPMI. PBMCs were plated at 0.5 ml per well in a 6-well plate, and 0.5 ml media with DMSO control or anti-viral control at 2× final concentration was added. IL-2 was added at 3×10^−3 μg/ml. Supernatant was recovered for p24 assay every 3-4 days post infection. Cells were split at 1×10^6 cell per ml every 5-7 days.
# HIV-1 transcription is intimately linked to T-cell activation due to shared motifs between the HIV-LTR and the regulatory regions in induced genes, namely NF-κB. A large variety of T cell stimuli activate NF-κB, including PHA, IL-2 and tumor necrosis factor alpha (TNF-α).
# Chain of CDK11 (Homo sapiens, UniProt Q9BWU1) (Q9BWU1 whole entry): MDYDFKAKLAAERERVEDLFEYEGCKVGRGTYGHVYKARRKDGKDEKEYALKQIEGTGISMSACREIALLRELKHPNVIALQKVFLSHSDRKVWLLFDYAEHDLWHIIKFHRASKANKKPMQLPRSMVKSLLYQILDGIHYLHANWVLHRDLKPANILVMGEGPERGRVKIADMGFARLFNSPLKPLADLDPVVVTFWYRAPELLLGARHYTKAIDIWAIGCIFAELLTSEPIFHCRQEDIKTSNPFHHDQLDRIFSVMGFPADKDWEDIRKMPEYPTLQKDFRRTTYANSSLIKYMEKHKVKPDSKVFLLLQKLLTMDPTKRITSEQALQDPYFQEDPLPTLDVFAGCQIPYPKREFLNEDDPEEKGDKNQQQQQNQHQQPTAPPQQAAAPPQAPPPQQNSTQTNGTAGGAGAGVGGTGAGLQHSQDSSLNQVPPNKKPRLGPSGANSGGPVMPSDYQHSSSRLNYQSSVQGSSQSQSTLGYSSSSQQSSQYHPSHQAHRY
# Chain of Sp1 (P08047 whole entry): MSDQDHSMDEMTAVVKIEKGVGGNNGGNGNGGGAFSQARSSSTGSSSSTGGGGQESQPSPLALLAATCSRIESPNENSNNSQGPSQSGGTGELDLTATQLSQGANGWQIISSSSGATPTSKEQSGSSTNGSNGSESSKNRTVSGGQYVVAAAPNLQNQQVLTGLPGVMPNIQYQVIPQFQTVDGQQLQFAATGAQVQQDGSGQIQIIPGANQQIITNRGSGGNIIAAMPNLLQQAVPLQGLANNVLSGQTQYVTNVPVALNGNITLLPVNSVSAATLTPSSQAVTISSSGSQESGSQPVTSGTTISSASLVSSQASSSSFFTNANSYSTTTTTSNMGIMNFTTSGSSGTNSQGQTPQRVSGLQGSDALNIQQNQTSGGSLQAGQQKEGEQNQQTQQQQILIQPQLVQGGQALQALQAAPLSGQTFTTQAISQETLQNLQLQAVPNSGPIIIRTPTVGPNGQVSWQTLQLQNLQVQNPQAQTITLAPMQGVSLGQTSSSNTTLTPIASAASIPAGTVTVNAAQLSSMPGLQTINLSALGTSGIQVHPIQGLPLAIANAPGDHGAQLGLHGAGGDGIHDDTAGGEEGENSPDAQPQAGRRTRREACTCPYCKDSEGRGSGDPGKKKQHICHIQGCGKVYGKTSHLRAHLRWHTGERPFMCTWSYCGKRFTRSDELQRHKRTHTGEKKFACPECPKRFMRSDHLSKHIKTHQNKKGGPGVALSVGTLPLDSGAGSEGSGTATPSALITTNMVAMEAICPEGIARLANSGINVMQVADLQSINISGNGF
# Chain of CDK11 (Homo sapiens, UniProt P21127) (P21127 whole entry): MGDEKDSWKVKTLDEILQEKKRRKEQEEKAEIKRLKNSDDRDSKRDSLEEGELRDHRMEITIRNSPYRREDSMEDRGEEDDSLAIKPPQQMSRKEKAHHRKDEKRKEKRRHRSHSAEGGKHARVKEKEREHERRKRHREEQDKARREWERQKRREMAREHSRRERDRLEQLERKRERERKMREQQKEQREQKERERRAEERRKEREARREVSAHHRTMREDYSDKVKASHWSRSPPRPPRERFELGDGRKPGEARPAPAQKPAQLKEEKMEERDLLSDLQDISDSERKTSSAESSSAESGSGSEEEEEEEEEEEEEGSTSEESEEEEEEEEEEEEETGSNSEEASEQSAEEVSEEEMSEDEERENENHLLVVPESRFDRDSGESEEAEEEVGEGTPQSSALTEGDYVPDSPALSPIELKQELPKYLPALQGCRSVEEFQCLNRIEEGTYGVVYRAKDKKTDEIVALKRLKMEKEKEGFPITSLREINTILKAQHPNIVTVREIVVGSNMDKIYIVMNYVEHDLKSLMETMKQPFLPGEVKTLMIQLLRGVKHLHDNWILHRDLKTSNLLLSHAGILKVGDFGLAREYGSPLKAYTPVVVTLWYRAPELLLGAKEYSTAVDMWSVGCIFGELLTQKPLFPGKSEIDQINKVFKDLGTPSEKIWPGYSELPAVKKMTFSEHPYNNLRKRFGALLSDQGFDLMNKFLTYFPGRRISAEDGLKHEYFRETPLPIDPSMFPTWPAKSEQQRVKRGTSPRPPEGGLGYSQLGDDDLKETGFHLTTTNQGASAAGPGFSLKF
# Chain of ROCK II (O75116 whole entry): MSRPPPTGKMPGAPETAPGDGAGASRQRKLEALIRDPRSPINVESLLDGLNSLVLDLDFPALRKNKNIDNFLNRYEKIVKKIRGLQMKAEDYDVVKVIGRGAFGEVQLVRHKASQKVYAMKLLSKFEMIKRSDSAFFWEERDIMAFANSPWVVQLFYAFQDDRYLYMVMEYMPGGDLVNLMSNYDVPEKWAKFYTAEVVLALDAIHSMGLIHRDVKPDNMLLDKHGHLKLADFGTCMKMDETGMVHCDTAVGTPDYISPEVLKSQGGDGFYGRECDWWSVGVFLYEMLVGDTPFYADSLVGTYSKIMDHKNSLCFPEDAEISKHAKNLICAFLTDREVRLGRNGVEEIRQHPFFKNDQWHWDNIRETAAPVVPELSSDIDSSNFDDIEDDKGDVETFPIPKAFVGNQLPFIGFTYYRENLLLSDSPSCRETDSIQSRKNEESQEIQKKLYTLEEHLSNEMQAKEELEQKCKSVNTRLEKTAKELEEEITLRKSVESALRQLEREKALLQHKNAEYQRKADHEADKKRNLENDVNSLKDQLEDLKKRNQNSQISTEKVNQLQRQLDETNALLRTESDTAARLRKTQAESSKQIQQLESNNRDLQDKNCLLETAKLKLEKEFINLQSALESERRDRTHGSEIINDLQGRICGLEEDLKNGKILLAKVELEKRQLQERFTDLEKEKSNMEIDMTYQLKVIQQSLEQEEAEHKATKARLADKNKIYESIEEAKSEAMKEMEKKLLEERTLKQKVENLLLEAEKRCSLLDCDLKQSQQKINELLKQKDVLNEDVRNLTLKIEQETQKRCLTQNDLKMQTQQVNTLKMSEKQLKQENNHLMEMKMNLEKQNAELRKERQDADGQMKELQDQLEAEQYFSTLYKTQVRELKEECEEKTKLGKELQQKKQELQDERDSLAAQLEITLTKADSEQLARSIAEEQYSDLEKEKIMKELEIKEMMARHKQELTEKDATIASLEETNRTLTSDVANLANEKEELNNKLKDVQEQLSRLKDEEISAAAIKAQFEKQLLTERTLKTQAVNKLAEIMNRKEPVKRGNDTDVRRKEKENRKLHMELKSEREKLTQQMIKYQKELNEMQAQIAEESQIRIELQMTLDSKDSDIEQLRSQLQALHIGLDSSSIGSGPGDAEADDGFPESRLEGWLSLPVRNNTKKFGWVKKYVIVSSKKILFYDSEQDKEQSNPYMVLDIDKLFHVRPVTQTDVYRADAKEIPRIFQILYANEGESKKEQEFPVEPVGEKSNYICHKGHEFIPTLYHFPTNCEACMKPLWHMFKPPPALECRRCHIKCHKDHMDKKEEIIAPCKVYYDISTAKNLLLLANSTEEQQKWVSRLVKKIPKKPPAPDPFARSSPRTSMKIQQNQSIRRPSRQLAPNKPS
# Chain of CDK8 (P49336 whole entry): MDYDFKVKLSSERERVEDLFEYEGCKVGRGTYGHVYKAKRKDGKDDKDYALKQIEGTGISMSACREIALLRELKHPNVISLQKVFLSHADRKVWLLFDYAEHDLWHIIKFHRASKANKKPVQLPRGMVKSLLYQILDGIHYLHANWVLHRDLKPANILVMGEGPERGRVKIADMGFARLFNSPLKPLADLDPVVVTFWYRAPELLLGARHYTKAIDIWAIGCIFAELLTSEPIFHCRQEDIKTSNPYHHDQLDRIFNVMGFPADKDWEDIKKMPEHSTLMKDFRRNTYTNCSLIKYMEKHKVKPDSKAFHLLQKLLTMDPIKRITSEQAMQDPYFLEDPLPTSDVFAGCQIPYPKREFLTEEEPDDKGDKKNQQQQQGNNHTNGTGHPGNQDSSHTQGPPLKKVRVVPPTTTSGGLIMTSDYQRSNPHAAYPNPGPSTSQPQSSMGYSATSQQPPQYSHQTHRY
smiles,measurement,setting,value
"Cc1cn([C@H]2C[C@H](N=[N+]=[N-])[C@@H](CO)O2)c(=O)[nH]c1=O [AZT, zidovudine, reference compound]",EC50,HIV-1 pNL4-3 [1],5.2 nM
CN(C)[C@H]1C[C@@]23CC[C@@]4(O2)C(=CC[C@]2(C)C(c5ccc6ccncc6c5)=CC[C@H]24)C=C3[C@@H](OC(=O)CCCCCNC(=O)CCCC[C@@H]2SC[C@@H]3NC(=O)N[C@@H]32)[C@@H]1O.O=C(O)C(F)(F)F.O=C(O)C(F)(F)F [Bio-CA],EC50 relative to CA,HIV-1 pNL4-3 [2],10 fold
same,viability of the cells,HeLa-CD4 cells,did not compromise the viability of the cells
"CN(C)C1CC23CCC4(O2)C(=CCC2(C)C(c5ccc6ccncc6c5)CCC42)C=C3C(O)C1O (stereo not shown) [CA, Cortistatin A]",EC50 for the inhibition of HIV activity,HIV-1 pNL4-3 [2],picomolar to low nanomolar range
same,competition for binding of recombinant Tat to Bio-dCA,Tat,competed
same,interaction with Tat (pull-down),Tat; flag-tagged Tat expressed in cells or recombinant Tat,interacts
same,interaction with TAR-nonbinding basic region Tat mutant (pull-down),[3],not
same,interaction with DNA-PK,[4],seems to interact
same,transcription activity from CMV and MLV promoters,CMV and MLV promoters,reduces the transcription activity
same,IC50,[5],350 nM
same,Kd,CDK11 [6],10 ± 2 nM
same,Kd,CDK8,17 ± 2 nM
same,Kd,ROCK II,220 ± 2 nM
same,interaction with Sp1,Sp1,not observed
same,pull down of RNA polymerase,RNA polymerase,shown to pull down
same,interaction with CDK11 (pull-down),CDK11 [7],did not interact
"Cc1nnc(C(=O)NC(C)(C)c2nc(C(=O)NCc3ccc(F)cc3)c(O)c(=O)n2C)o1 [Raltegravir, reference compound]",competition for binding of recombinant Tat to Bio-dCA,Tat,not
same,"EC50, HIV-1 replication in primary cells (PBMCs)",HIV-1 pNL43,similar
"CC(C)(C)NC(=O)[C@@H]1C[C@@H]2CCCC[C@@H]2CN1C[C@@H](O)[C@H](Cc1ccccc1)NC(=O)[C@H](CC(N)=O)NC(=O)c1ccc2ccccc2n1 [saquinavir, reference compound]","EC50, HIV-1 replication in primary cells (PBMCs)",HIV-1 pNL43,similar
